# Earlier results in patent US5656291A, “Controlled release preparation” (Pharmacia & Upjohn Aktiebolag, priority 1995, dated 1997).
# Details: after oral administration
smiles,measurement,value
CN1CC[C@]23c4c5ccc(O)c4O[C@H]2[C@@H](O)C=C[C@H]3[C@H]1C5 [Morphine],duration of analgesic effect,4 to 6 h
